Patent publication US20230101273A1, “MESOIONIC INSECTICIDES” (FMC Corporation, priority 2020, published 2023)
Counter-ions that a name gives are not always drawn.

Key:
[1] = tested on: corn planthopper (Peregrinus maidis (Ashmead)); assay: Test C: control of corn planthopper through contact and/or systemic means; assay type: in vivo; settings: 144 h, sprayed at 50 ppm, 6 days, nymphs on corn plant
Protocol: (§1) Test compounds were formulated using a solution containing 10% acetone, 90% water and 300 ppm Activator 900 non-ionic surfactant (Loveland Products, Loveland, Colo., USA). The formulated compounds were applied in 1 mL of liquid through an atomizer nozzle positioned 1.27 cm (0.5 inches) above the top of each test unit. Test compounds were sprayed at the rates indicated, and each test was replicated three times.
For evaluating control of corn planthopper (Peregrinus maidis (Ashmead)) through contact and/or systemic means, the test unit consisted of a small open container with a 3-4-day-old corn (maize) plant inside. White sand was added to the top of the soil prior to application of the test compound.
(§2) Test compounds were formulated and sprayed at 50 ppm. After spraying of the formulated test compound, the test units were allowed to dry for 1 h before they were post-infested with ˜15-20 nymphs (18-to-21-day-old). A black, screened cap was placed on the top of each test unit, and the test units were held for 6 days in a growth chamber at 22-24° C. and 50-70% relative humidity. Each test unit was then visually assessed for insect mortality.

[2] = tested on: green peach aphid (Myzus persicae (Sulzer)); assay: Test E: control of green peach aphid through contact and/or systemic means; assay type: in vivo; settings: 144 h, sprayed at 50 ppm, 6 days, radish plant
Protocol: as §1
For evaluating control of green peach aphid (Myzus persicae (Sulzer)) through contact and/or systemic means, the test unit consisted of a small open container with a 12-15-day-old radish plant inside. This was pre-infested by placing on a leaf of the test plant 30-40 aphids on a piece of leaf excised from a culture plant (cut-leaf method). The aphids moved onto the test plant as the leaf piece desiccated. After pre-infestation, the soil of the test unit was covered with a layer of sand.
Test compounds were formulated and sprayed at 50 ppm. After spraying of the formulated test compound, each test unit was allowed to dry for 1 hour and then a black, screened cap was placed on top. The test units were held for 6 days in a growth chamber at 19-21° C. and 50-70% relative humidity. Each test unit was then visually assessed for insect mortality.

[3] = tested on: cotton melon aphid (Aphis gossypii (Glover)); assay: Test F: control of cotton melon aphid through contact and/or systemic means; assay type: in vivo; settings: 144 h, sprayed at 50 ppm, 6 days, okra plant
Protocol: as §1
[…] This was pre-infested with 30-40 insects on a piece of leaf according to the cut-leaf method, and the soil of the test unit was covered with a layer of sand.
Test compounds were formulated and sprayed at 50 ppm. After spraying, the test units were maintained in a growth chamber for 6 days at 19° C. and 70% relative humidity. Each test unit was then visually assessed for insect mortality.

[4] = tested on: potato leafhopper (Empoasca fabae (Harris)); assay: Test D: control of potato leafhopper through contact and/or systemic means; assay type: in vivo; settings: 144 h, sprayed at 50 ppm, 6 days, adults on Soleil bean plant
Protocol: as §1
For evaluating control of potato leafhopper (Empoasca fabae (Harris)) through contact and/or systemic means, the test unit consisted of a small open container with a 5-6-day-old Soleil bean plant (primary leaves emerged) inside. White sand was added to the top of the soil, and one of the primary leaves was excised prior to application of the test compound.
as §2, with “1 hour” for “1 h”, “with 5 potato leafhoppers (18-to-21-day-old adults).” for “with ˜15-20 nymphs (18-to-21-day-old).”, “of the” for “of each”, “at 20°” for “at 22-24°”, “and 70%” for “and 50-70%”

With `CCOc1cc(C#CC(C)C)cc(-c2c([O-])[n+](Cc3cnc(Cl)s3)c3c(C)cccn3c2=O)c1` (as salt: salt) [Compound 54, 1-[(2-chloro-5-thiazolyl)methyl]-3-[3-ethoxy-5-(3-methyl-1-butyn-1-yl)phenyl]-2-hydroxy-9-methyl-4-oxo-4H-pyrido[1,2-a]pyrimidinium inner salt] as the compound, how does the melting point read?
Its melting point is 90 to 97 °C.

Which mortality at 50 ppm [1] does the source give for `CCC#Cc1cc(Cl)cc(-c2c([O-])[n+](Cc3cnc(Cl)s3)c3c(C)cccn3c2=O)c1` [Compound 1, 3-[3-(1-butyn-1-yl)-5-chlorophenyl]-1-[(2-chloro-5-thiazolyl)methyl]-2-hydroxy-9-methyl-4-oxo-4H-pyrido[1,2-a]pyrimidinium inner salt] here?
Its mortality at 50 ppm is no less than 80%.

And the mortality at 50 ppm [2]?
Its mortality at 50 ppm is no less than 80%.

And the mortality at 50 ppm [3]?
Its mortality at 50 ppm is no less than 80%.

Which results are given for `CCC#Cc1cccc(-c2c([O-])[n+](Cc3cnc(Cl)s3)c3c(C)cccn3c2=O)c1` [Compound 2, 3-[3-(1-butyn-1-yl)phenyl]-1-[(2-chloro-5-thiazolyl)methyl]-2-hydroxy-9-methyl-4-oxo-4H-pyrido[1,2-a]pyrimidinium inner salt]?
mortality at 50 ppm [1]: ≥ 80%; mortality at 50 ppm [2]: ≥ 80%; mortality at 50 ppm [3]: ≥ 80%

For `COc1cc(C#CC2CC2)cc(-c2c([O-])[n+](Cc3cnc(Cl)s3)c3c(C)cccn3c2=O)c1` [Compound 4, 1-[(2-chloro-5-thiazolyl)methyl]-3-[3-(2-cyclopropylethynyl)-5-methoxyphenyl]-2-hydroxy-9-methyl-4-oxo-4H-pyrido[1,2-a]pyrimidinium inner salt], which mortality at 50 ppm [1] is on record?
The mortality at 50 ppm was no less than 80%.

And the mortality at 50 ppm [4]?
The mortality at 50 ppm was no less than 80%.

What about the mortality at 50 ppm [2] of the same compound?
The mortality at 50 ppm was no less than 80%.

What about the mortality at 50 ppm [3] of the same compound?
The mortality at 50 ppm was no less than 80%.

With `Cc1cc(C#CC(C)C)cc(-c2c([O-])[n+](Cc3cnc(Cl)s3)c3c(C)cccn3c2=O)c1` [Compound 7, 1-[(2-chloro-5-thiazolyl)methyl]-2-hydroxy-9-methyl-3-[3-methyl-5-(3-methyl-1-butyn-1-yl)phenyl]-4-oxo-4H-pyrido[1,2-a]pyrimidinium inner salt] as the compound, how does the mortality at 50 ppm [1] read?
Its mortality at 50 ppm is no less than 80%.

What about the mortality at 50 ppm [4] of the same compound?
Its mortality at 50 ppm is no less than 80%.

What about the mortality at 50 ppm [2] of the same compound?
Its mortality at 50 ppm is no less than 80%.

What about the mortality at 50 ppm [3] of the same compound?
Its mortality at 50 ppm is no less than 80%.

Which results are given for `Cc1cc(C#CC2CC2)cc(-c2c([O-])[n+](Cc3cnc(Cl)s3)c3c(C)cccn3c2=O)c1` [Compound 11, 1-[(2-chloro-5-thiazolyl)methyl]-3-[3-(2-cyclopropylethynyl)-5-methylphenyl]-2-hydroxy-9-methyl-4-oxo-4H-pyrido[1,2-a]pyrimidinium inner salt]?
mortality at 50 ppm [1]: ≥ 80%; mortality at 50 ppm [4]: ≥ 80%; mortality at 50 ppm [2]: ≥ 80%; mortality at 50 ppm [3]: ≥ 80%

With `Cc1cccn2c(=O)c(-c3cc(C#CC4CC4)cc(C(C)C)c3)c([O-])[n+](Cc3cnc(Cl)s3)c12` [Compound 14] as the compound, how does the mortality at 50 ppm [2] read?
Its mortality at 50 ppm is no less than 80%.

What about the mortality at 50 ppm [3] of the same compound?
Its mortality at 50 ppm is no less than 80%.

With `COc1cc(C#CC(C)C)cc(-c2c([O-])[n+](Cc3cnc(Cl)s3)c3c(C)cccn3c2=O)c1` [Compound 18] as the compound, how does the mortality at 50 ppm [2] read?
Its mortality at 50 ppm is no less than 80%.

And the mortality at 50 ppm [3]?
The mortality at 50 ppm was no less than 80%.

For `Cc1cccn2c(=O)c(-c3cc(F)cc(C#CC(C)C)c3)c([O-])[n+](Cc3cnc(Cl)s3)c12` [Compound 21], which mortality at 50 ppm [4] is on record?
The mortality at 50 ppm was no less than 80%.

And the mortality at 50 ppm [2]?
The mortality at 50 ppm was no less than 80%.

What about the mortality at 50 ppm [3] of the same compound?
Its mortality at 50 ppm is no less than 80%.

With `Cc1cccn2c(=O)c(-c3cc(C#CC(C)C)cc(C(F)(F)F)c3)c([O-])[n+](Cc3cnc(Cl)s3)c12` [Compound 26] as the compound, how does the mortality at 50 ppm [4] read?
Its mortality at 50 ppm is no less than 80%.

With `Cc1cccn2c(=O)c(-c3cc(F)cc(C#CC4CC4)c3)c([O-])[n+](Cc3cnc(Cl)s3)c12` [Compound 29] as the compound, how does the mortality at 50 ppm [2] read?
The mortality at 50 ppm was no less than 80%.

Which mortality at 50 ppm [2] does the source give for `Cc1cccn2c(=O)c(-c3cc(Cl)cc(C#CC4CC4)c3)c([O-])[n+](Cc3cnc(Cl)s3)c12` [Compound 35] here?
Its mortality at 50 ppm is no less than 80%.

What about the mortality at 50 ppm [3] of the same compound?
Its mortality at 50 ppm is no less than 80%.

Which results are given for `Cc1cccn2c(=O)c(-c3cccc(C#CC4CC4)c3)c([O-])[n+](Cc3cnc(Cl)s3)c12` [Compound 37, 1-[(2-chloro-5-thiazolyl)methyl]-3-[3-(2-cyclopropylethynyl)phenyl]-2-hydroxy-9-methyl-4-oxo-4H-pyrido[1,2-a]pyrimidinium inner salt]?
mortality at 50 ppm [1]: ≥ 80%; mortality at 50 ppm [4]: ≥ 80%; mortality at 50 ppm [2]: ≥ 80%; mortality at 50 ppm [3]: ≥ 80%

With `Cc1cccn2c(=O)c(-c3cccc(C#CC(C)C)c3)c([O-])[n+](Cc3cnc(Cl)s3)c12` [Compound 44, 1-[(2-chloro-5-thiazolyl)methyl]-2-hydroxy-9-methyl-3-[3-(3-methyl-1-butyn-1-yl)phenyl]-4-oxo-4H-pyrido[1,2-a]pyrimidinium inner salt] as the compound, how does the mortality at 50 ppm [1] read?
The mortality at 50 ppm was no less than 80%.

And the mortality at 50 ppm [4]?
Its mortality at 50 ppm is no less than 80%.

What about the mortality at 50 ppm [2] of the same compound?
Its mortality at 50 ppm is no less than 80%.

And the mortality at 50 ppm [3]?
Its mortality at 50 ppm is no less than 80%.

What does the source list for `Cc1cccn2c(=O)c(-c3cc(Cl)cc(C#Cc4ccccc4)c3)c([O-])[n+](Cc3cnc(Cl)s3)c12` [Compound 47]?
mortality at 50 ppm [4]: ≥ 80%; mortality at 50 ppm [3]: ≥ 80%

With `CCOc1cc(C#CC2CC2)cc(-c2c([O-])[n+](Cc3cnc(Cl)s3)c3c(C)cccn3c2=O)c1` [Compound 51, 1-[(2-chloro-5-thiazolyl)methyl]-3-[3-(2-cyclopropylethynyl)-5-ethoxyphenyl]-2-hydroxy-9-methyl-4-oxo-4H-pyrido[1,2-a]pyrimidinium inner salt] as the compound, how does the mortality at 50 ppm [1] read?
Its mortality at 50 ppm is no less than 80%.

What about the mortality at 50 ppm [2] of the same compound?
Its mortality at 50 ppm is no less than 80%.

And the mortality at 50 ppm [3]?
Its mortality at 50 ppm is no less than 80%.

Which results are given for `CC#Cc1cccc(-c2c([O-])[n+](Cc3cnc(Cl)s3)c3c(C)cccn3c2=O)c1` [Compound 61]?
mortality at 50 ppm [1]: ≥ 80%; mortality at 50 ppm [4]: ≥ 80%; mortality at 50 ppm [3]: ≥ 80%

For `Cc1ccc(-c2c([O-])[n+](Cc3cnc(Cl)s3)c3c(C)cccn3c2=O)cc1C#CC(C)C` [Compound 86], which mortality at 50 ppm [1] is on record?
The mortality at 50 ppm was no less than 80%.

And the mortality at 50 ppm [4]?
The mortality at 50 ppm was no less than 80%.

What about the mortality at 50 ppm [2] of the same compound?
The mortality at 50 ppm was no less than 80%.

And the mortality at 50 ppm [3]?
Its mortality at 50 ppm is no less than 80%.
